The record followed here is PMC10839021, “Pharmacological effects of monoterpene carveol on the neuromuscular system of nematodes and mammals” (Frontiers in Pharmacology, 2024).

For orientation: EC50 means the midpoint of the concentration-response curve.

This assay addresses T1, A. suum ACR-16 nAChR (Asu-ACR-16, homomeric nicotinic acetylcholine receptor) (Ascaris suum, UniProt A0A0K0QSL7).
T1 construct: homomeric receptor expressed from Asu-ACR-16 cRNA in Xenopus laevis oocytes
Kind of assay: two-electrode voltage-clamp in Xenopus oocytes, agonist concentration-response. The format is cell-based.

T1 sequence (A0A0K0QSL7 entry or part of it): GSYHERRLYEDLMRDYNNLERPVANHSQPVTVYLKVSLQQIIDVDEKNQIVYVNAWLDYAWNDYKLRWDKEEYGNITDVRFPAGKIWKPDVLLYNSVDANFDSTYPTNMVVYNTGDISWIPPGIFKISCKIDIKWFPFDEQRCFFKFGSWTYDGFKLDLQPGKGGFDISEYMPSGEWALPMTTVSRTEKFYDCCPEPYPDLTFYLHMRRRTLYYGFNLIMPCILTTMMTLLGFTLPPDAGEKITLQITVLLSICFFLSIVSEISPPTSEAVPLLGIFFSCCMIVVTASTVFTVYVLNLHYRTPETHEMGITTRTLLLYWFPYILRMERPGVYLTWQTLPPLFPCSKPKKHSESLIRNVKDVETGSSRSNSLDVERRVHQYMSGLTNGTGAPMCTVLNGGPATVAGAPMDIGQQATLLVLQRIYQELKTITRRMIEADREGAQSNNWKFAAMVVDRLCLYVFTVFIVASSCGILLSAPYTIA

For the compound `CC(=O)OCC[N+](C)(C)C` [acetylcholine], a half-maximal effect (EC50) was put at 4.9 ± 1.2 µM.
